The record followed here is PubChem BioAssay (NCI).

Values joined by “and” are separate entries in the source; they are usually repeats but may differ in a detail not shown here. Equal entries are not always repeated.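 Method: 48-hour compound exposure of cells in 96-well plates, five concentrations, linear interpolation of endpoints. The concentration for 50% growth inhibition is given as GI50. At the TGI there is no net growth.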

Holding throughout (assay): growth of human tumour cells (NCI), 48 h
The subject of experiment [1] is 786-0 renal.
Experiment [2] concerns A498 renal.
The test system of experiment [3] is CAKI-1 renal.
In experiment [4] the test system is CCRF-CEM leukemia.
For experiment [5], the system named is IGROV1 ovarian.
For experiment [6], the system named is NCI-H23 lung.
The test system of experiment [7] is RPMI-8226 leukemia.
Experiment [8] has as its system SF-268 CNS.
Experiment [9] relates to SK-MEL-5 melanoma.
The test system of experiment [10] is SNB-19 CNS.

As to `CCN1C(=O)N(CC)C2C1NN=c1s/c(=C\c3cccc([N+](=O)[O-])c3)c(=O)n12` (stereo not drawn), the GI50 was 0.143 µM in [1]; 0.0254 µM in experiment [2]; 0.052 µM in experiment [3]; 0.116 µM in experiment [4]; 0.162 µM in [5]; 0.413 µM in experiment [6]. Besides, the GI50 was 0.127 µM in [7], 0.293 µM in experiment [8], 0.0511 µM in experiment [9] and 0.128 µM in experiment [10]. For the same molecule, the TGI in experiment [1] was above 100 µM; in experiment [2], 0.0916 µM; in experiment [3], above 100 µM; in experiment [4] it was above 100 µM; in experiment [5], above 100 µM; in [6], above 100 µM. The TGI in [7] is above 100 µM; in [8], above 100 µM; in [9], 1.17 µM; in [10], above 100 µM.

In the case of `CCN(CC)CCCNc1[nH]ncc2c(C)c3nc4ccccc4c3cc12`, the GI50 in [1] was 0.346 µM; in experiment [3], 4.07 µM; in experiment [4] it was 0.132 µM; in [5] it was 1.08 µM; in experiment [6] it was 0.583 µM; in [7], 1.51 µM and 0.99 µM. The GI50 in experiment [8] is 0.493 µM and 1.09 µM; in experiment [9], 1.41 µM; in [10], 0.857 µM. The TGI in [1] was 1.58 µM and 4.57 µM; in experiment [2], 4.73 µM; in experiment [3], 18.1 µM and 17.7 µM; in [5] it was 8.16 µM and 6.88 µM; in experiment [6], 1.99 µM and 3.72 µM; in experiment [7], 4.92 µM and 5.62 µM. Besides, the TGI in [8] was 3.16 µM and 7.67 µM; in [9], 2.78 µM and 5.05 µM; in experiment [10], 5.96 µM and 4.79 µM.

Regarding `CSc1nc(N)c2c(n1)NC(c1ccccc1)C1CCc3ccccc3C1=N2` (stereo not drawn), the GI50 in experiment [1] is above 100 µM; in [2] it was above 100 µM; in experiment [3], 31.3 µM; in [4], 3.33 µM; in experiment [5], 1.61 µM; in [6], 6.16 µM. Moreover, the GI50 in experiment [7] was 5.72 µM; in experiment [8], above 100 µM; in experiment [9] it was 4.79 µM; in experiment [10], above 100 µM. For the same molecule, the TGI was above 100 µM in [1]; above 100 µM in experiment [2]; above 100 µM in experiment [3]; above 100 µM in experiment [4]; 74 µM in experiment [5]; above 100 µM in experiment [6]. Moreover, the TGI in [7], in experiment [8], in experiment [9] and in [10] was above 100 µM each time.

For the molecule `CCN(CC)CCC(=O)/C=C/c1ccc(C)cc1`, the TGI stood at 24.7 µM in experiment [1]; 24 µM in experiment [2]; 3.28 µM in experiment [3]; 56.1 µM in [4]; 30 µM in experiment [5]; 32.4 µM in experiment [6]. For the same molecule, the TGI in [7] is above 100 µM; in [8], 30.4 µM; in experiment [9] it was 30.2 µM; in experiment [10], 37.5 µM.

For the molecule `CC1(C)CC(=O)c2c(ccc(C(=O)C[C@@H](N)CO)c2N)O1`, the GI50 in [1] is 11.9 µM; in experiment [2], 0.921 µM; in experiment [3], 0.564 µM; in [4], 0.556 µM; in experiment [5] it was 0.958 µM; in [6] it was 1.17 µM. Besides, the GI50 is 1.56 µM in experiment [7], 0.667 µM in experiment [8], 1.37 µM in experiment [9] and 0.749 µM in [10]. The TGI in experiment [1] was above 61.4 µM; in experiment [2] it was 27.7 µM; in experiment [3], 23.7 µM; in experiment [4], above 60.2 µM; in experiment [5] it was above 100 µM; in [6], above 100 µM. The TGI was 21.4 µM in [7], above 89.5 µM in experiment [8], above 43.9 µM in experiment [9] and above 100 µM in experiment [10].

For `O=C(Nc1cccc(-n2cc(-c3ccncc3)c(-c3ccc(O)c(Cl)c3)n2)c1)c1ccc(Cl)c(Cl)c1`, the GI50 was 5.49 µM in [1]; 1.94 µM in experiment [2]; 3.38 µM in [3]; 4.08 µM in experiment [4]; 25.5 µM in [5]; 15 µM in [6]. In addition, the GI50 in experiment [7] is 3.46 µM; in experiment [8], 36.9 µM; in experiment [9] it was 3.9 µM; in experiment [10], 29.7 µM. Further, the TGI in [1] was 94.3 µM; in experiment [2] it was 89.9 µM; in experiment [3], above 100 µM; in [4], above 100 µM; in [5] it was above 100 µM; in experiment [6] it was above 100 µM. Besides, the TGI in experiment [7] is above 100 µM; in experiment [8], above 100 µM; in [9], 18.7 µM; in experiment [10], above 100 µM.
